Test results as given in ChEMBL document CHEMBL4251583, “Quinoxaline: An insight into the recent pharmacological advances” (Eur J Med Chem, 2018).
In brackets after ≈: the same amount, converted by molar mass.

Legend:
[1] = Therapeutic index, ratio of CC50 for human MT4 cells to EC50 for HIV1 infected in human MT4 cells; type: toxicity, cell-based; conditions: uninfected versus HIV1-infected, read-out: Ratio EC50
IMR-32 = experiment: Antiproliferative activity against human IMR32 cells after 72 hrs by MTT assay; type: functional, cell-based; conditions: IMR-32, 72 h
SK-N-SH = experiment: Antiproliferative activity against human SK-N-SH cells after 72 hrs by MTT assay; type: functional, cell-based
Rattus norvegicus [2] = experiment: Antiinflammatory activity in carrageenan-induced paw edema Wistar rat model assessed as protection against edema formation up to 2000 mg/kg, po measured 3 hrs post dose relative to control; type: functional
Escherichia coli = experiment: Antibacterial activity against Escherichia coli ATCC 25922 after 18 hrs by broth microdilution method; type: functional; conditions: ATCC 25922, 18 h
[3] = tested on: Mycobacterium tuberculosis; experiment: Antitubercular activity against Mycobacterium tuberculosis H37Rv after 5 days by MABA method; type: functional; conditions: 120 h
Staphylococcus aureus = experiment: Antibacterial activity against Staphylococcus aureus ATCC 25923 after 18 hrs by broth microdilution method; type: functional; conditions: ATCC 25923, 18 h
Proteus vulgaris = experiment: Antibacterial activity against Proteus vulgaris ATCC 29905 after 18 hrs by broth microdilution method; type: functional; conditions: ATCC 29905, 18 h
Pseudomonas aeruginosa = experiment: Antibacterial activity against Pseudomonas aeruginosa ATCC 27853 after 18 hrs by broth microdilution method; type: functional; conditions: ATCC 27853, 18 h
Salmonella typhimurium = experiment: Antibacterial activity against […] ATCC 14028 after 18 hrs by broth microdilution method; type: functional, Salmonella enterica subsp. enterica serovar Typhimurium; conditions: Salmonella enterica, ATCC 14028, 18 h
Plasmodium falciparum [4] = experiment: Antiplasmodial activity against Plasmodium falciparum K1 infected in human erythrocytes preincubated for 24 hrs followed by [3H]hypoxanthine addition measured after 24 hrs by scintillation counting; type: functional, organism-based
[5] = Selectivity index, ratio of IC50 for human KB cells to IC50 for Plasmodium falciparum K1 infected in human erythrocytes; type: toxicity, cell-based; conditions: read-out: Ratio IC50
Rattus norvegicus [6] = experiment: Antiinflammatory activity in carrageenan-induced paw edema rat model assessed as inhibition of carrageenan-induced edema relative to control; type: functional
Plasmodium falciparum [7] = experiment: Antiplasmodial activity against chloroquine-resistant Plasmodium falciparum FCR-3 infected in human erythrocytes after 3 days by [3H]-hypoxanthine incorporation assay; type: functional, organism-based; conditions: FCR-3/Gambia
WI-38 = experiment: Cytotoxicity against human WI38 cells assessed as cell growth inhibition after 48 hrs by SRB assay; type: cell-based; conditions: WI-38, 48 h
Rattus norvegicus [8] = experiment: Antiinflammatory activity in carrageenan-induced paw edema Fisher 344 rat model assessed as protection against carrageenan-induced edema at 0.01 mmol/kg, ip administered simultaneously with carrageenan measured at 3.5 hrs post carrageenan injection relative to control; type: functional; conditions: Fisher 344, ip

Cc1cc2ncc(=O)n(CC(O)CO)c2cc1C (stereo not given)
selectivity ratio [1]: 73

O=[N+]([O-])c1ccc(C2OC2c2cnc3ccccc3n2)o1 (stereo not given)
IC50 (IMR-32): 5 µM | IC50 (SK-N-SH): 3.9 µM

Cc1nc2ccccc2nc1CCC(=O)N/N=C/c1ccc(O)cc1
inhibition (INH) (Rattus norvegicus [2]): 55.3 - 65.9%

O=c1[nH]c2ccccc2[nH]/c1=N/N=C/[C@@H]1O[C@H](CO)[C@@H](O)[C@H](O)[C@H]1O
MIC (Escherichia coli): 2.07 µM (≈ 0.725 µg/mL) | MIC [3]: 0.65 µM (≈ 0.228 µg/mL) | MIC (Staphylococcus aureus): 2.07 µM (≈ 0.725 µg/mL) | MIC (Proteus vulgaris): 2.07 µM (≈ 0.725 µg/mL) | MIC (Pseudomonas aeruginosa): 2.07 µM (≈ 0.725 µg/mL) | MIC (Salmonella typhimurium): 2.07 µM (≈ 0.725 µg/mL)

N#Cc1c(-c2ccco2)[n+]([O-])c2ccccc2[n+]1[O-]
IC50 (Plasmodium falciparum [4]): 0.63 µM | selectivity ratio [5]: 10.3

COc1ccc(/C=N/N=c2/[nH]c3ccc(C)cc3nc2CCC(=O)O)cc1
inhibition (INH) (Rattus norvegicus [6]): 69.85%

CC(C)Cc1ccc(C(C)C(=O)O)cc1 (stereo not given) [IBUPROFEN]
inhibition (INH) (Rattus norvegicus [2]): 73.5%

COc1ccc(/C=N/N=c2/[nH]c3ccccc3nc2CCC(=O)O)cc1
inhibition (INH) (Rattus norvegicus [6]): 66.04%

Cc1c(C(=O)/C=C/c2ccc3ccccc3c2)[n+]([O-])c2ccccc2[n+]1[O-]
IC50 (Plasmodium falciparum [7]): 5.8 µM

Cc1nc2ccccc2nc1CCC(=O)N/N=C/c1c[nH]c2ccccc12
inhibition (INH) (Rattus norvegicus [2]): 55.3 - 65.9%

Brc1ccc2nc(N3CCOCC3)c3nnnn3c2c1
IC50 (WI-38): > 100 mg/L

Cc1nc2ccccc2nc1CCC(=O)N/N=C/c1ccc(N(C)C)cc1
inhibition (INH) (Rattus norvegicus [2]): 55.3 - 65.9%

O=c1[nH]c2ccccc2[nH]/c1=N/N=C/[C@@H]1O[C@H](CO)[C@@H](O)[C@H](O)[C@@H]1O
MIC (Escherichia coli): 2.07 µM (≈ 0.725 µg/mL) | MIC [3]: 0.65 µM (≈ 0.228 µg/mL) | MIC (Staphylococcus aureus): 2.07 µM (≈ 0.725 µg/mL) | MIC (Proteus vulgaris): 2.07 µM (≈ 0.725 µg/mL) | MIC (Pseudomonas aeruginosa): 2.07 µM (≈ 0.725 µg/mL) | MIC (Salmonella typhimurium): 2.07 µM (≈ 0.725 µg/mL)

O=c1[nH]c2ccccc2[nH]/c1=N/N=C/[C@@H]1O[C@H](CO)[C@@H](O[C@H]2O[C@H](CO)[C@@H](O)[C@H](O)[C@H]2O)[C@H](O)[C@H]1O
MIC (Escherichia coli): 2.07 µM (≈ 1.06 µg/mL) | MIC [3]: 0.65 µM (≈ 0.333 µg/mL) | MIC (Staphylococcus aureus): 2.07 µM (≈ 1.06 µg/mL) | MIC (Proteus vulgaris): 2.07 µM (≈ 1.06 µg/mL) | MIC (Pseudomonas aeruginosa): 2.07 µM (≈ 1.06 µg/mL) | MIC (Salmonella typhimurium): 2.07 µM (≈ 1.06 µg/mL)

[N-]=[N+]=Nc1nc2cc(Br)ccc2nc1Cl
IC50 (WI-38): > 100 mg/L

COc1ccc2c(c1)c(CC(=O)O)c(C)n2C(=O)c1ccc(Cl)cc1 [INDOMETHACIN]
inhibition (INH) (Rattus norvegicus [6]): 79.5% | inhibition in vivo at 10 µmol/kg (Rattus norvegicus [8]): 47%

Cc1nc2ccccc2nc1CCC(=O)N/N=C/c1ccccc1
inhibition (INH) (Rattus norvegicus [2]): 55.3 - 65.9%

COc1cc(/C=C/C(=O)c2c(C)[n+]([O-])c3ccccc3[n+]2[O-])cc(OC)c1OC
IC50 (Plasmodium falciparum [7]): 6.2 µM

Cc1nc2ccccc2nc1CCC(=O)N/N=C/c1ccc(Cl)cc1
inhibition (INH) (Rattus norvegicus [2]): 55.3 - 65.9%

COc1ccc2c(c1)[n+]([O-])c(C#N)c(-c1ccco1)[n+]2[O-]
IC50 (Plasmodium falciparum [4]): 0.28 µM

Brc1ccc2c(c1)n1nnnc1c1nnnn21
IC50 (WI-38): > 100 mg/L

O=c1[nH]c2ccccc2[nH]/c1=N/N=C/[C@@H]1O[C@H](CO)[C@@H](O[C@@H]2O[C@H](CO)[C@H](O)[C@H](O)[C@H]2O)[C@H](O)[C@H]1O
MIC (Escherichia coli): 2.07 µM (≈ 1.06 µg/mL) | MIC [3]: 0.65 µM (≈ 0.333 µg/mL) | MIC (Staphylococcus aureus): 2.07 µM (≈ 1.06 µg/mL) | MIC (Proteus vulgaris): 2.07 µM (≈ 1.06 µg/mL) | MIC (Pseudomonas aeruginosa): 2.07 µM (≈ 1.06 µg/mL) | MIC (Salmonella typhimurium): 2.07 µM (≈ 1.06 µg/mL)

Cc1nc2ccccc2nc1CCC(=O)N/N=C/c1ccco1
inhibition (INH) (Rattus norvegicus [2]): 55.3 - 65.9%

Brc1ccc2nc(N3CCCCC3)c3nnnn3c2c1
IC50 (WI-38): > 100 mg/L

c1ccc2nccnc2c1 [QUINOXALINE]
IC50 (IMR-32): 13 µM | IC50 (SK-N-SH): 4.6 µM

COc1ccc2nc(C)c(-c3cc(-c4cc(OC)c(OC)c(OC)c4)nc(N)n3)nc2c1
inhibition in vivo at 10 µmol/kg (Rattus norvegicus [8]): 41%
